This note sets out measurements from patent publication US20020026053A1, “Novel 3-(substituted) -2- indolinones compounds and use thereof as inhibitors of protein kinase activity” (priority 1997, published 2002).

Molecules are shown by their SMILES.

The experiment has as its system FLK-1 receptor. The experiment can be described thus: FLK-1 Assay (cellular/catalytic ELISA, VEGF-stimulated phosphotyrosine). The class given is cell-based. Also on record: concentration or dose not given beside the values. On the procedure:
The cellular/catalytic assays described herein are performed in an ELISA format. The general procedure is as follows: a compound is introduced to cells expressing the test kinase, either naturally or recombinantly, for a selected period of time after which, if the test kinase is a receptor, a ligand known to activate the receptor is added. The cells are lysed and the lysate is transferred to the wells of an ELISA plate previously coated with a specific antibody recognizing the substrate of the enzymatic phosphorylation reaction. Non-substrate components of the cell lysate are washed away and the amount of phosphorylation on the substrate is detected with an antibody specifically recognizing phosphotyrosine compared with control cells that were not contacted with a test compound.
An ELISA assay is conducted to measure the kinase activity of the FLK-1 receptor and more specifically, the inhibition or activation of TK activity on the FLK-1 receptor. Specifically, the following assay can be conducted to measure kinase activity of the FLK-1 receptor in cells genetically engineered to express Flk-1.
a. Corning 96-well ELISA plates (Corning Catalog No. 25805-96);
b. Cappel goat anti-rabbit IgG (catalog no. 55641);
c. PBS (Gibco Catalog No. 450-1300EB);
d. TBSW Buffer (50 mM Tris (pH 7.2), 150 mM NaCl and 0.1% Tween-20);
e. Ethanolamine stock (10% ethanolamine (pH 7.0), stored at 4° C.);
f. HNTG buffer (20 mM HEPES buffer (pH 7.5), 150 mM NaCl, 0.2% Triton X-100, and 10% glycerol);
g. EDTA (0.5 M (pH 7.0) as a 100× stock);
h. Sodium orthovanadate (0.5 M as a 100× stock);
i. Sodium pyrophosphate (0.2 M as a 100× stock);
j. NUNC 96 well V bottom polypropylene plates (Applied Scientific Catalog No. AS-72092);
k. NIH3T3 C7#3 Cells (FLK-1 expressing cells);
l. DMEM with 1× high glucose L-Glutamine (catalog No. 11965-050);
n. L-glutamine, Gibco (catalog no. 25030-016);
o. VEGF, PeproTech, Inc. (catalog no. 100-20)(kept as 1 μg/100 μl stock in Milli-Q dH2O and stored at −20° C.;
p. Affinity purified anti-FLK-1 antiserum;
q. UB40 monoclonal antibody specific for phosphotyrosine (see, Fendley, et al., 1990, Cancer Research 50:1550-1558);
r. EIA grade Goat anti-mouse IgG-POD (BioRad catalog no. 172-1011);
s. 2,2-azino-bis(3-ethylbenz-thiazoline-6-sulfonic acid (ABTS) solution (100 mM citric acid (anhydrous), 250 mM Na2HPO4 (pH 4.0), 0.5 mg/ml ABTS (Sigma catalog no. A-1888)), solution should be stored in dark at 4° C. until ready for use;
t. H2O2 (30% solution) (Fisher catalog no. H325);
u. ABTS/ H2O2 (15 ml ABTS solution, 2 μl H2O2) prepared 5 minutes before use and left at room temperature;
v. 0.2 M HCl stock in H2O;
w. dimethylsulfoxide (100%) (Sigma Catalog No. D-8418); and
y. Trypsin-EDTA (Gibco BRL Catalog No. 25200-049).
1. Coat Corning 96-well ELISA plates with 1.0 μg per well Cappel Anti-rabbit IgG antibody in 0.1M Na2CO3 pH 9.6. Bring final volume to 150 μl per well. Coat plates overnight at 4° C. Plates can be kept up to two weeks when stored at 4° C.
2. Grow cells in Growth media (DMEM, supplemented with 2.0 mM L-Glutamine, 10% FBS) in suitable culture dishes until confluent at 37° C., 5% CO2.
3. Harvest cells by trypsinization and seed in Corning 25850 polystyrene 96-well round bottom cell plates, 25,000 cells/well in 200 μl of growth media.
4. Grow cells at least one day at 37° C., 5% CO2.
5. Wash cells with D-PBS 1×.
6. Add 200 μl/well of starvation media (DMEM, 2.0 mM 1-Glutamine, 0.1% FBS). Incubate overnight at 37° C., 5% CO2.
7. Dilute Compounds 1:20 in polypropylene 96 well plates using starvation media. Dilute dimethylsulfoxide 1:20 for use in control wells.
8. Remove starvation media from 96 well cell culture plates and add 162 μl of fresh starvation media to each well.
9. Add 18 μl of 1:20 diluted compound dilution (from step 7) to each well plus the 1:20 dimethylsulfoxide dilution to the control wells (+/− VEGF), for a final dilution of 1:200 after cell stimulation. Final dimethylsulfoxide is 0.5%. Incubate the plate at 37° C., 5% CO2 for two hours.
10. […]
For the compound `COc1c(I)cc(C=C2C(=O)Nc3c(Br)cc(Br)c(C)c32)cc1C(C)(C)C` [10732/H11], the “Flk Kinase % Inhibition (P.110)” value is recorded as 6.4%.

As to `COc1c(C(C)C)cc(C=C2C(=O)Nc3c(Br)cc(Br)c(C)c32)cc1C(C)C` [10732/H03], the “Flk Kinase % Inhibition (P.110)” value is given as 8.4%.

For the compound `Cc1c(Br)cc(Br)c2c1C(=Cc1cccc(C#N)c1)C(=O)N2` [10727/H08], the “Flk Kinase % Inhibition (P.110)” value turned out to be 2.9%.

Turning to `CSc1ccc(C=C2C(=O)Nc3c(Br)cc(Br)c(C)c32)cc1` [10729/H04], the “Flk Kinase % Inhibition (P.110)” value was found to be 1.1%.

Consider `Cc1c(Br)cc(Br)c2c1C(=Cc1cc(C(C)(C)C)c(OCc3ccccc3)c(C(C)(C)C)c1)C(=O)N2` [10733/H05], for which the “Flk Kinase % Inhibition (P.110)” value is on record as 17.7%.

In the case of `Cc1cc2occ(C=C3C(=O)Nc4c(Br)cc(Br)c(C)c43)c(=O)c2cc1C` [10731/H03], the “Flk Kinase % Inhibition (P.110)” value is given as 20.0%.

Consider `Cc1c(Br)cc(Br)c2c1C(=Cc1cccnc1)C(=O)N2` [10729/H08], for which the “Flk Kinase % Inhibition (P.110)” value is 8.2%.

For `Cc1c(Br)cc(Br)c2c1C(=Cc1cc(O)c3c(c1O)CCCC3)C(=O)N2` [10726/H07], the “Flk Kinase % Inhibition (P.110)” value is given as −9.5%.

As to `Cc1c(Br)cc(Br)c2c1C(=Cc1cccc(C(F)(F)F)c1F)C(=O)N2` [10728/H07], the “Flk Kinase % Inhibition (P.110)” value amounted to 1.5%.

For `Cc1c(Br)cc(Br)c2c1C(=Cc1ccccn1)C(=O)N2` [10729/H07], the “Flk Kinase % Inhibition (P.110)” value is given as 9.9%.

As for `Cc1c(Br)cc(Br)c2c1C(=C1C(=O)Nc3ccccc31)C(=O)N2` [10726/H09], the “Flk Kinase % Inhibition (P.110)” value came out at 1.5%.

Consider `CCn1c2ccccc2c2cc(C=C3C(=O)Nc4c(Br)cc(Br)c(C)c43)ccc21` [10731/H02], for which the “Flk Kinase % Inhibition (P.110)” value was determined as 19.7%.

With `Cc1c(Br)cc(Br)c2c1C(=C1C(=O)N(C)c3ccccc31)C(=O)N2` [10731/H10], the “Flk Kinase % Inhibition (P.110)” value came to 25.9%.

On to `Cc1ccc(C=C2C(=O)Nc3c(Br)cc(Br)c(C)c32)s1` [10717/H07], for which the “Flk Kinase % Inhibition (P.110)” value is given as 1.1%.

As for `Cc1c(Br)cc(Br)c2c1C(=Cc1ccc(F)cc1)C(=O)N2` [10717/H05], the “Flk Kinase % Inhibition (P.110)” value stood at 5.0%.

For `Cc1cn(C)cc1C=C1C(=O)Nc2c(Br)cc(Br)c(C)c21` [10726/H06], the “Flk Kinase % Inhibition (P.110)” value came out at 17.5%.

Consider `Cc1c(Br)cc(Br)c2c1C(=Cc1cc(Br)ccc1O)C(=O)N2` [10733/H09], for which the “Flk Kinase % Inhibition (P.110)” value stood at 44.8%.

Take `COc1c(Br)cc(C=C2C(=O)Nc3c(Br)cc(Br)c(C)c32)cc1C(C)(C)C` [10732/H07]: the “Flk Kinase % Inhibition (P.110)” value was found to be 9.7%.

On to `CCN(CC)c1ccc(C=C2C(=O)Nc3c(Br)cc(Br)c(C)c32)cc1` [10727/H02], for which the “Flk Kinase % Inhibition (P.110)” value was −1.2%.

Take `CCc1cc(CC)c(C=C2C(=O)Nc3c(Br)cc(Br)c(C)c32)[nH]1` [10727/H03]: the “Flk Kinase % Inhibition (P.110)” value was determined as 4.3%.

For `Cc1c(Br)cc(Br)c2c1C(=Cc1ccncc1)C(=O)N2` [10729/H09], the “Flk Kinase % Inhibition (P.110)” value is listed as −2.7%.

As for `Cc1c(Br)cc(Br)c2c1C(=Cc1ccc(OCc3ccccc3)c(C(C)(C)C)c1)C(=O)N2` [10732/H06], the “Flk Kinase % Inhibition (P.110)” value came to 22.6%.

For the compound `C=C(C)C1CC=C(C=C2C(=O)Nc3c(Br)cc(Br)c(C)c32)CC1` (stereo not shown) [10731/H04], the “Flk Kinase % Inhibition (P.110)” value is listed as 16.4%.

In the case of `Cc1c(Br)cc(Br)c2c1C(=Cc1coc3ccccc3c1=O)C(=O)N2` [10727/H07], the “Flk Kinase % Inhibition (P.110)” value was −9.7%.

On to `COc1ccc(C=C2C(=O)Nc3c(Br)cc(Br)c(C)c32)cc1C(C)(C)C` [10732/H05], for which the “Flk Kinase % Inhibition (P.110)” value turned out to be 12.8%.

Consider `Cc1cc(C=C2C(=O)Nc3c(Br)cc(Br)c(C)c32)cc(C)c1OCc1ccccc1` [10733/H07], for which the “Flk Kinase % Inhibition (P.110)” value was found to be 7.6%.

As to `COc1cccc(OC)c1C=C1C(=O)Nc2c(Br)cc(Br)c(C)c21` [10728/H03], the “Flk Kinase % Inhibition (P.110)” value was −2.1%.

Consider `Cc1c(Br)cc(Br)c2c1C(=C1C(=O)Nc3ccc(F)cc31)C(=O)N2` [10726/H08], for which the “Flk Kinase % Inhibition (P.110)” value is on record as −15.0%.

`Cc1c(Br)cc(Br)c2c1C(=Cc1c[nH]c3ccccc13)C(=O)N2` [10717/H06]: the “Flk Kinase % Inhibition (P.110)” value was 12.5%.

`COc1ccc2[nH]cc(C=C3C(=O)Nc4c(Br)cc(Br)c(C)c43)c2c1` [10731/H09]: the “Flk Kinase % Inhibition (P.110)” value was determined as 15.8%.

Consider `COc1ccc(C=C2C(=O)Nc3c(Br)cc(Br)c(C)c32)c2ccccc12` [10729/H03], for which the “Flk Kinase % Inhibition (P.110)” value is given as 18.3%.
